“Also recorded” adds a separate entry of the source. Where two headings read alike, the source gives them in different places.
Tests used:
THP-1 cells / γδ T cells = experiment: TNF-α production from γδ T cells stimulated by compound-pretreated THP-1 cells; type: cell-based; conditions: THP-1, Acute monocytic leukemia, 4 hr pretreatment, 16 hr with γδ T cells, read-out: TNF-α50
Protocol: Since the above-mentioned results of Experimental Example confirm that the activity of bisphosphonic acids becomes high by POM esterification in various tumor cells, the TNF-α production induction ability of more number of tumor cells was quantitatively studied. […] Thereto was added a solution (500 μl) of compound 7 obtained by serially diluting 10 mM stock solution 10-fold from 20 μM, or a solution (500 μl) of compound 14 obtained by serially diluting 10 mM stock solution 10-fold from 200 μM, and the cells were suspended well. These conical tubes were stood at 37° C. for 4 hr, and the cells were washed 3 times with 5 ml of culture medium. To these cells was added 500 μl of medium, and the cells were suspended well. […] The cell culture medium was suspended well, and the plate was centrifuged at 1,700 rpm, 4° C. for 2 min and the culture supernatant (150 μl) was taken and placed in another round-bottomed 96 well plate. The plate was frozen at −80° C. overnight, left standing at room temperature for 1 hr, stirred well and 100 μl thereof was subjected to ELISA of TNF-α. The content of TNF-α was calculated from the analytical curve of TNF-α. These were performed in triplicate, and TNF-α50 of bisphosphonic acid POM ester derivative (compound 7) and bisphosphonic acid (compound 14) was calculated and summarized in Table 8.

[1] = test system: various tumor cell lines / γδ T cells; experiment: TNF-α production induction ability in various tumor cell lines (FIG. 7, 8); type: cell-based; conditions: various tumor cell lines pretreated, γδ T cells (FIG. 7, 8)
Protocol: From the results of the above-mentioned Experimental Example, of the bisphosphonic acid POM ester derivatives, since the activity of compound 7 was high, the TNF-α production induction ability of this compound was studied using tumor cells other than EJ-1. In this case, to study effectiveness of POM esterification, using compound 14, which is the corresponding bisphosphonic acid, as a control to be the comparison target. […] Thereto was added a solution (500 μl) of compound 7 obtained by serially diluting 10 mM stock solution 10-fold from 20 μM, or a solution (500 μl) of compound 14 obtained by serially diluting 10 mM stock solution 10-fold from 200 μM, and the cells were suspended well. These conical tubes were stood at 37° C. for 4 hr, and the cells were washed 3 times with 5 ml of culture medium. To these cells was added 500 μl of medium, and the cells were suspended well. […] The content of TNF-α was calculated from the analytical curve of TNF-α. […]
Therefore, TNF-α production induction ability of compound 7 was studied in more number of tumor cell lines. […] The content of TNF-α was calculated from the analytical curve of TNF-α.
To quantitatively study the above-mentioned TNF-α production induction ability, various tumor cell lines were treated with compound 7, reacted with γδ T cells, the produced TNF-α amount was measured, and TNF-α50 value thereof was calculated. […]

EC50 (THP-1 cells / γδ T cells; Homo sapiens) [nM] | SMILES | EC50 (THP-1 cells / γδ T cells) [nM] | TNF-α production induction ability (in words) [1]
> 100000 | O=P(O)(O)C(CNc1nccs1)P(=O)(O)O [Compound 14, 2-(thiazol-2-ylamino)ethylidene-1,1-bisphosphonic Acid, reference compound] |  | 
 | CC(C)(C)C(=O)OCOP(=O)(OCOC(=O)C(C)(C)C)C(CNc1nccs1)P(=O)(OCOC(=O)C(C)(C)C)OCOC(=O)C(C)(C)C [Compound 7, tetrakispivaloyloxymethyl 2-(thiazol-2-ylamino) ethylidene-1,1-bisphosphonate] | 300 | TNF-α production induction ability becomes high by POM esterification in any tumor cells; also recorded: efficient induction of TNF-α production from γδ T cells in any cell line

From patent US10532065B2, “Bisphosphonic acid derivative and application for same” (NAGASAKI UNIVERSITY, priority 2014, dated 2020)
